Assay results published in ChEMBL document CHEMBL1201862, “PubChem BioAssay data set” (2004).
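Where inhibition never reached the appropriate level, the endpoint shown equals the highest concentration tested. Otherwise, values were interpolated linearly from a five-concentration, 48-hour dose response in 96-well plates. Here, GI50 denotes the concentration required for 50% inhibition of growth.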 Active and inactive are the calls of the source. Cut-off read from the data, not from the text of the source: active = GI50 up to about 1.1 µM and inactive = higher.

What was measured:
Assay in all cases: NCI tumour cell line growth inhibition, 48 h
[1] = system: A549
[2] = system: DU-145
[3] = system: SF-295
[4] = system: MDA-N
[5] = system: NCI-H460
[6] = system: HOP-62
[7] = system: MDA-MB-231
[8] = system: SF-268
[9] = system: OVCAR-5
[10] = system: MDA-MB-435
[11] = system: T47D
[12] = system: UACC-62
[13] = system: SK-MEL-28
[14] = system: CAKI-1
[15] = system: HOP-92
[16] = system: SK-MEL-5
[17] = system: 786-0
[18] = system: OVCAR-3
[19] = system: SR
[20] = system: M14
[21] = system: SN12C
[22] = system: SF-539
[23] = system: NCI-H522
[24] = system: OVCAR-4
[25] = system: NCI/ADR-RES
[26] = system: SK-OV-3
[27] = system: HT-29
[28] = system: HCT-15
[29] = system: RXF 393
[30] = system: ACHN
[31] = system: K562
[32] = system: BT-549
[33] = system: KM12
[34] = system: UO-31
[35] = system: TK-10
[36] = system: CCRF-CEM
[37] = system: HL-60
[38] = system: U-251
[39] = system: Hs-578T
[40] = system: A498
[41] = system: UACC-257
[42] = system: NCI-H23
[43] = system: LOX IMVI
[44] = system: COLO 205
[45] = system: HCT-116
[46] = system: SW-620
[47] = system: MOLT-4
[48] = system: SNB-19
[49] = system: IGROV-1
[50] = system: OVCAR-8
[51] = system: PC-3
[52] = system: EKVX
[53] = system: Malme-3M
[54] = system: SK-MEL-2
[55] = system: NCI-H226
[56] = system: RPMI-8226
[57] = system: SNB-75
[58] = system: HCC 2998

O=C1O[B-](c2ccccc2)(c2ccccc2)[NH+]2CCCC12 (configuration not stated)
GI50 [1]: > 100 µM (inactive) | GI50 [2]: > 100 µM (inactive) | GI50 [3]: > 100 µM (inactive) | GI50 [4]: 85.1 µM (inactive) | GI50 [5]: > 100 µM (inactive) | GI50 [6]: > 100 µM (inactive) | GI50 [7]: > 100 µM (inactive) | GI50 [8]: > 100 µM (inactive) | GI50 [9]: > 100 µM (inactive) | GI50 [10]: > 100 µM (inactive) | GI50 [11]: 76.9 µM (inactive) | GI50 [12]: > 100 µM (inactive) | GI50 [13]: 99.5 µM (inactive) | GI50 [14]: 47.4 µM (inactive) | GI50 [15]: 16.7 µM (inactive) | GI50 [16]: 33 µM (inactive) | GI50 [17]: 50.7 µM (inactive) | GI50 [18]: 38.7 µM (inactive) | GI50 [19]: > 100 µM (inactive) | GI50 [20]: 40.5 µM (inactive) | GI50 [21]: > 100 µM (inactive) | GI50 [22]: 55.6 µM (inactive) | GI50 [23]: 64.7 µM (inactive) | GI50 [24]: > 100 µM (inactive) | GI50 [25]: 84.7 µM (inactive) | GI50 [26]: > 100 µM (inactive) | GI50 [27]: > 100 µM (inactive) | GI50 [28]: 59.3 µM | GI50 [29]: 43.5 µM (inactive) | GI50 [30]: 75.7 µM (inactive) | GI50 [31]: 67.6 µM (inactive) | GI50 [32]: 41.8 µM (inactive) | GI50 [33]: > 100 µM (inactive) | GI50 [34]: 34.6 µM (inactive) | GI50 [35]: 44.4 µM (inactive) | GI50 [36]: > 100 µM (inactive) | GI50 [37]: > 100 µM (inactive) | GI50 [38]: > 100 µM (inactive) | GI50 [39]: 56.6 µM (inactive) | GI50 [40]: 55.7 µM (inactive) | GI50 [41]: 64.9 µM (inactive) | GI50 [42]: 74 µM (inactive) | GI50 [43]: > 100 µM (inactive) | GI50 [44]: 31.6 µM (inactive) | GI50 [45]: 47 µM (inactive) | GI50 [46]: 63.4 µM (inactive) | GI50 [47]: > 100 µM (inactive) | GI50 [48]: > 100 µM (inactive) | GI50 [49]: > 100 µM (inactive) | GI50 [50]: 74 µM (inactive) | GI50 [51]: 35 µM (inactive) | GI50 [52]: > 100 µM (inactive) | GI50 [53]: 51.1 µM (inactive) | GI50 [54]: 97.7 µM (inactive) | GI50 [55]: 49 µM (inactive) | GI50 [56]: 72.8 µM (inactive)

O=P1(Oc2ccc(Cl)cc2)OCCS1 (configuration not stated)
GI50 [1]: > 100 µM (inactive) | GI50 [2]: > 100 µM (inactive) | GI50 [3]: > 100 µM (inactive) | GI50 [4]: > 100 µM (inactive) | GI50 [5]: > 100 µM (inactive) | GI50 [6]: > 100 µM (inactive) | GI50 [7]: > 100 µM (inactive) | GI50 [8]: > 100 µM (inactive) | GI50 [9]: > 100 µM (inactive) | GI50 [11]: > 100 µM (inactive) | GI50 [12]: > 100 µM (inactive) | GI50 [13]: > 100 µM (inactive) | GI50 [15]: > 100 µM (inactive) | GI50 [16]: > 100 µM (inactive) | GI50 [17]: > 100 µM (inactive) | GI50 [57]: > 100 µM (inactive) | GI50 [58]: > 100 µM (inactive) | GI50 [19]: > 100 µM (inactive) | GI50 [20]: > 100 µM (inactive) | GI50 [21]: > 100 µM (inactive) | GI50 [22]: > 100 µM (inactive) | GI50 [23]: > 100 µM (inactive) | GI50 [25]: > 100 µM (inactive) | GI50 [26]: > 100 µM (inactive) | GI50 [27]: > 100 µM (inactive) | GI50 [28]: > 100 µM | GI50 [29]: > 100 µM (inactive) | GI50 [30]: > 100 µM (inactive) | GI50 [32]: > 100 µM (inactive) | GI50 [34]: > 100 µM (inactive) | GI50 [35]: > 100 µM (inactive) | GI50 [36]: > 100 µM (inactive) | GI50 [37]: 80.7 µM (inactive) | GI50 [38]: > 100 µM (inactive) | GI50 [39]: > 100 µM (inactive) | GI50 [40]: > 100 µM (inactive) | GI50 [41]: > 100 µM (inactive) | GI50 [42]: > 100 µM (inactive) | GI50 [43]: > 100 µM (inactive) | GI50 [44]: > 100 µM (inactive) | GI50 [45]: > 100 µM (inactive) | GI50 [46]: > 100 µM (inactive) | GI50 [48]: > 100 µM (inactive) | GI50 [49]: > 100 µM (inactive) | GI50 [50]: > 100 µM (inactive) | GI50 [51]: > 100 µM (inactive) | GI50 [52]: > 100 µM (inactive) | GI50 [53]: > 100 µM (inactive) | GI50 [54]: > 100 µM (inactive) | GI50 [55]: > 100 µM (inactive) | GI50 [56]: > 100 µM (inactive)
